Laboratory results: article PMC5201133 (Journal of medicinal chemistry, 2016)
“Also recorded” adds a separate entry of the source. Where two headings read alike, the source gives them in different places. Marks after values point to notes of the source that are not given here.

Columns and labels:
5HT2BR [1] = target: T1, 5HT2BR (Homo sapiens, UniProt P41595); type: cell-based
5HT2CR [2] = target: T2, 5HT2CR (Homo sapiens, UniProt P28335); assay: 5HT2CR functional calcium mobilization assay; type: cell-based; settings: 10 µM; result in words
T2 sequence (P28335 33-458): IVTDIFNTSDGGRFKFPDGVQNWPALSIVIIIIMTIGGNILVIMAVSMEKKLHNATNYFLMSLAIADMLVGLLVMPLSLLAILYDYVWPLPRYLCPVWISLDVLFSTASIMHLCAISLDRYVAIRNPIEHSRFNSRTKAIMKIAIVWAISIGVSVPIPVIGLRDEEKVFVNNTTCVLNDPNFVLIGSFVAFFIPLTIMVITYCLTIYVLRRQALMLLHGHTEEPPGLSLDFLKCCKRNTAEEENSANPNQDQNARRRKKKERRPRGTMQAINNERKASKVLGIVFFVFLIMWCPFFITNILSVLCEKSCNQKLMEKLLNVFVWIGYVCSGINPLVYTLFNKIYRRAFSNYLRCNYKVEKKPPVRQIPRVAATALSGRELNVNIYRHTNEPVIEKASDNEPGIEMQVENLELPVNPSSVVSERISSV

5HT2AR [3] = target: T3, 5HT2AR (Homo sapiens, UniProt P28223); assay: 5HT2AR functional calcium mobilization assay; type: cell-based; settings: 10 µM; result in words
A2AAR = settings: rat (r), archival data ref 22, 24–27, cited from earlier work
A1AR [4] = settings: read-out: A1AR Ki; rat (r); archival data ref 22, 24–27; cited from earlier work
A3AR [5] = settings: read-out: A3AR Ki; rat (r); archival data ref 22, 24–27; cited from earlier work
human 5HT5AR = human 5HT5AR (Homo sapiens, UniProt P47898); assay: 5HT5AR binding; settings: result in words
5HT2AR [6] = target: T3, 5HT2AR; assay: 5HT2AR radioligand binding, [3H]ketanserin, HEKT cell membranes; settings: read-out: 5HT2AR % inhibition
5HT2BR [7] = target: T1, 5HT2BR; type: binding
A1AR [8] = target: T4, A1AR (Homo sapiens, UniProt P30542); assay: A1AR binding, [3H]N6-phenylisopropyladenosine 45
T4 sequence (P30542 1-326): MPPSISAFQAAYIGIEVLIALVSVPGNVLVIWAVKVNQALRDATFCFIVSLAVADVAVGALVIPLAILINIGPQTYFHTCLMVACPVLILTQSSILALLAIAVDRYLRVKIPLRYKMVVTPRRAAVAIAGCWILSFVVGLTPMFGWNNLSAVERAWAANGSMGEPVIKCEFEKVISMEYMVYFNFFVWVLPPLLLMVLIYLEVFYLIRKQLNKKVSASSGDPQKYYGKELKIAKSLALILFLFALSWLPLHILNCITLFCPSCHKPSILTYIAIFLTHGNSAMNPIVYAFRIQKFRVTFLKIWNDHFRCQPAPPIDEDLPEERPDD

A3AR [9] = target: T5, A3AR (Homo sapiens, UniProt P0DMS8); assay: A3AR binding, [125I]46
T5 sequence (P0DMS8 1-318): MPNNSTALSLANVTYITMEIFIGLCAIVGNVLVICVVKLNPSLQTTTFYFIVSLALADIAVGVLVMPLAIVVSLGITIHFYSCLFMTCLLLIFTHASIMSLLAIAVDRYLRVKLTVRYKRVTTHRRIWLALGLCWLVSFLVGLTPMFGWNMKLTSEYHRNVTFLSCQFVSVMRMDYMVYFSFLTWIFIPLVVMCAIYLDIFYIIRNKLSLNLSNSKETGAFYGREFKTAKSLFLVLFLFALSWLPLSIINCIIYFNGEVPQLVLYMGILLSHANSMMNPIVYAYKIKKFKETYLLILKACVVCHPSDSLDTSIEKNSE

hA2AAR = hA2AAR (Homo sapiens, UniProt P29274); assay: A2AAR binding, [3H]47, HEK293 cell membranes; settings: read-out: A2AAR % inhibition
5HT2CR [10] = target: T2, 5HT2CR; assay: 5HT2CR radioligand binding, [3H]mesulergine 44, Flp IN HEK cell membranes; settings: 5HT2CR Ki, mean ± SEM; ^d n = 1
[11] = Stability in human plasma; type: in vitro ADME; settings: for remaining at 2 h: human, plasma, Stability in plasma, % remaining at 120 min
CACO-2 cells = assay: CACO cell permeability; type: in vitro ADME; settings: CACO-2 cells
[12] = tested on: 5 CYP isozymes (A2, 2C9, 2C19, 2D6, 3A4); assay: Inhibition of 5 CYP isozymes; type: in vitro ADME; settings: human
[13] = Cytotoxicity in HepG2 cells; type: cell-based; settings: human
5HT2AR [14] = target: T3, 5HT2AR; settings: inhibition of binding at 10 µM; archival data ref 9, 22, 24–27; cited from earlier work
5HT2CR [15] = target: T2, 5HT2CR; settings: read-out: 5HT2CR Ki; archival data ref 8, 9, 22, 24–27; cited from earlier work
A3AR [16] = target: T5, A3AR; settings: read-out: A3AR Ki, archival data ref 22, 24–27; cited from earlier work
CACO cell permeability = type: in vitro ADME; settings: human

T3 sequence (P28223 whole entry): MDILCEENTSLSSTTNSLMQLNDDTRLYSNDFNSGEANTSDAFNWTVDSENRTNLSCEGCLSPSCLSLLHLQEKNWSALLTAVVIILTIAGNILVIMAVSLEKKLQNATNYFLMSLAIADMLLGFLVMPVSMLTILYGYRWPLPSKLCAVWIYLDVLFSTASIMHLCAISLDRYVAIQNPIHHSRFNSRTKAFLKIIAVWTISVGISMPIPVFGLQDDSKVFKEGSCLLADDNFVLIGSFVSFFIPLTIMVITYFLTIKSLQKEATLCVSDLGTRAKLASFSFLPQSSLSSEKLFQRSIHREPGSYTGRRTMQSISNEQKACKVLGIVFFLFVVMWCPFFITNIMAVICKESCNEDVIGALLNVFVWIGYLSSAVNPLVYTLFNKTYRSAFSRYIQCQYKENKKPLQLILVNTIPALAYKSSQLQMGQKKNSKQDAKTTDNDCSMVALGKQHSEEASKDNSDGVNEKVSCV
T1 sequence (P41595 whole entry): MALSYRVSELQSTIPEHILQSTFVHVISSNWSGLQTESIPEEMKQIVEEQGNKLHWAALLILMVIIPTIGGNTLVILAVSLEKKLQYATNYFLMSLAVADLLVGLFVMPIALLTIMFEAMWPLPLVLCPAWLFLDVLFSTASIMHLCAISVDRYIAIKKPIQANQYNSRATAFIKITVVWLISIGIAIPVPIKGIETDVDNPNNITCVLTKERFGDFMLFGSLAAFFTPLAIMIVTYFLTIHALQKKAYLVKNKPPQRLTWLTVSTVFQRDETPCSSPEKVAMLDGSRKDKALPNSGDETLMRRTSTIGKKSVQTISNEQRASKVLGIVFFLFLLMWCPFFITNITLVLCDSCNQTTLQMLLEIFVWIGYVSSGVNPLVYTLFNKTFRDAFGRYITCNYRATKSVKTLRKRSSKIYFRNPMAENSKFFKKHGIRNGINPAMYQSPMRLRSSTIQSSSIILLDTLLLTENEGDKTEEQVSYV
hA2AAR, sequence (P29274 whole entry): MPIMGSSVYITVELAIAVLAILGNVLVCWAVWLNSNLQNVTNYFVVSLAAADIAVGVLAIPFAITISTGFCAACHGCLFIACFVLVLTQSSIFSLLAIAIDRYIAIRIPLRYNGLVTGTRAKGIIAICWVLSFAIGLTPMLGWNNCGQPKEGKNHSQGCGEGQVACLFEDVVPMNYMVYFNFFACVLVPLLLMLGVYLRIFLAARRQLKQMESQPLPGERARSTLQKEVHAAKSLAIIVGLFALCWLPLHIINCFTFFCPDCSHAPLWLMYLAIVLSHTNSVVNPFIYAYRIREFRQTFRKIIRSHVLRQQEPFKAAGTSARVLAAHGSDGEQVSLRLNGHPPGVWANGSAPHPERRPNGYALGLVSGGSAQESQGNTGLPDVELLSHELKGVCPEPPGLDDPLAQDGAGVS
human 5HT5AR, sequence (P47898 whole entry): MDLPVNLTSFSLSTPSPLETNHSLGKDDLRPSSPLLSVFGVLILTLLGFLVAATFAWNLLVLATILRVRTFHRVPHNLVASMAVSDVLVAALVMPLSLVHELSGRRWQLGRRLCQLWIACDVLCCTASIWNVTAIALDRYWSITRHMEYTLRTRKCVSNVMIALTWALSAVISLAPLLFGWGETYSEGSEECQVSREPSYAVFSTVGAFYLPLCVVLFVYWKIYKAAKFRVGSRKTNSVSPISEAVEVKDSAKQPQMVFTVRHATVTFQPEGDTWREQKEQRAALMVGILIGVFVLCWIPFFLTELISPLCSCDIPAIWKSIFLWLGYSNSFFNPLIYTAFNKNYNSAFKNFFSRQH

Compound: CCOC(=O)[C@@]12C[C@@H]1[C@@H](n1cnc3c(NC(C4CC4)C4CC4)nc(Cl)nc31)[C@H](O)[C@@H]2O [compound 26, Ethyl (1S,2R,3S,4R,5S)-4-(2-chloro-6-((dicyclopropylmethyl)amino)-9H-purin-9-yl)-2,3-dihydroxybicyclo[3.1.0]hexane-1-carboxylate]
- agonist activity at 5HT2BR (5HT2BR [1]): did not display significant; also recorded: no appreciable agonist or partial agonist activity
- agonist activity at 5HT2CR (5HT2CR [2]): did not display significant; also recorded: no appreciable agonist or partial agonist activity
- agonist or antagonist activity at 5HT2AR (5HT2AR [3]): did not display significant agonist or antagonist activity; also recorded: no activity as agonist or antagonist

Compound: OC[C@H]1O[C@@H](n2cnc3c(NC(C4CC4)C4CC4)ncnc32)[C@H](O)[C@@H]1O [compound 6]
- Ki (A2AAR; read-out: A2AAR Ki): 1370 nM

Compound: Nc1nc(Cl)nc2c1ncn2[C@H]1[C@H](O)[C@H](O)[C@]2(CO)C[C@H]12 [compound 12]
- Ki (A1AR [4]): 273 nM
- Ki (A3AR [5]): 85 nM

Compound: CN(C)c1nc(Cl)nc2c1ncn2[C@H]1[C@H](O)[C@H](O)[C@]2(C(=O)O)C[C@H]12 [compound 30, (1S,2R,3S,4R,5S)-4-(2-Chloro-6-(dimethylamino)-9H-purin-9-yl)-2,3-dihydroxybicyclo [3.1.0]hexane-1-carboxylic acid]
- binding at the human 5HT5AR (human 5HT5AR): bound weakly

Compound: NCCNC(=O)[C@@]12C[C@@H]1[C@@H](n1cnc3c(NC(C4CC4)C4CC4)nc(Cl)nc31)[C@H](O)[C@@H]2O [compound 31, (1S,2R,3S,4R,5S)-N-(2-Aminoethyl)-4-(2-chloro-6-((dicyclopropylmethyl)amino)-9H-purin-9-yl)-2,3-dihydroxybicyclo[3.1.0]hexane-1-carboxamide]
- inhibition at 10 µM (5HT2AR [6]): < 10%
- Ki (5HT2BR [7]): 630 ± 146 nM
- Ki (A1AR [8]): 2580 ± 1220 nM
- Ki (A3AR [9]): 8110 ± 1270 nM
- inhibition at 10 µM (hA2AAR): 23 ± 5%
- Ki (5HT2CR [10]): 142 ± 1 nM

Compound: COC(=O)[C@@]12C[C@@H]1[C@@H](n1cnc3c(NC(C4CC4)C4CC4)nc(Cl)nc31)[C@H](O)[C@@H]2O [compound 25, Methyl (1S,2R,3S,4R,5S)-4-(2-Chloro-6-((dicyclopropylmethyl)amino)-9H-purin-9-yl)-2,3-dihydroxybicyclo[3.1.0]hexane-1-carboxylate]
- ligand efficiency (LE) in 5HT2BR binding (5HT2BR [7]): 0.37
- agonist activity at 5HT2BR (5HT2BR [1]; 10 µM, result in words): no appreciable agonist or partial agonist activity
- agonist activity at 5HT2CR (5HT2CR [2]): no appreciable agonist or partial agonist activity
- agonist or antagonist activity at 5HT2AR (5HT2AR [3]): no activity as agonist or antagonist
- Stability in plasma, % remaining at 120 min, Human [11]: 95.3%
- remaining at 2 h [11]: ~100%
- Papp, A->B (CACO-2 cells): 18.47 10^−6 cm/sec
- IC50 [12]: ≥ 20000 nM
- CC50 [13]: > 30000 nM

Compound: CCOC(=O)[C@@]12C[C@@H]1[C@@H](n1cnc3c(N(C)C)nc(Cl)nc31)[C@H](O)[C@@H]2O [compound 29, Ethyl (1S,2R,3S,4R,5S)-4-(2-chloro-6-(dimethylamino)-9H-purin-9-yl)-2,3-dihydroxybicyclo[3.1.0]hexane-1-carboxylate]
- affinity at the A3AR (A3AR [9]; result in words): no measurable affinity

Compound: OC[C@@]12C[C@@H]1[C@@H](n1cnc3c(NC(C4CC4)C4CC4)nc(Cl)nc31)[C@H](O)[C@@H]2O [compound 14, (1R,2R,3S,4R,5S)-4-(2-Chloro-6-((dicyclopropylmethyl)amino)-9H-purin-9-yl)-1-(hydroxymethyl)bicyclo[3.1.0]hexane-2,3-diol]
- agonist activity at 5HT2CR (5HT2CR [2]): no appreciable agonist or partial agonist activity
- agonist or antagonist activity at 5HT2AR (5HT2AR [3]): no activity as agonist or antagonist

Compound: CNC(=O)[C@@]12C[C@@H]1[C@@H](n1cnc3c(NCc4cccc(Cl)c4)nc(Cl)nc31)[C@H](O)[C@@H]2O [compound 35]
- 5HT2AR % inhibition (5HT2AR [14]): 35%
- Ki (5HT2CR [15]): 168 ± 47 nM

Compound: CNC(=O)[C@H]1O[C@@H](n2cnc3c(N)ncnc32)[C@H](O)[C@@H]1O [compound 7, reference compound]
- Ki (A1AR [4]): 84 nM

Compound: CNc1nc(Cl)nc2c1ncn2[C@H]1[C@H](O)[C@H](O)[C@]2(CO)C[C@H]12 [compound 13]
- Ki (A1AR [4]): 1470 nM
- A2AAR % inhibition (A2AAR; inhibition of binding at 10 µM): <10% (r) ^c
- Ki (A3AR [16]): 23 nM

Compound: CNC(=O)[C@@]12C[C@@H]1[C@@H](n1cnc3c(N(C)C)nc(C#Cc4ccc(Cl)s4)nc31)[C@H](O)[C@@H]2O [compound 42]
- reduction of A3AR affinity (A3AR [9]; 39 vs. 42): 34 fold

Compound: CNC(=O)[C@@]12C[C@@H]1[C@@H](n1cnc3c(NC(C4CC4)C4CC4)nc(Cl)nc31)[C@H](O)[C@@H]2O [compound 23, (1S,2R,3S,4R,5S)-4-(2-Chloro-6-((dicyclopropylmethyl)amino)-9H-purin-9-yl)-2,3-dihydroxy-N-methylbicyclo[3.1.0]hexane-1-carboxamide]
- agonist activity at 5HT2BR (5HT2BR [1]): no appreciable agonist or partial agonist activity
- agonist activity at 5HT2CR (5HT2CR [2]): no appreciable agonist or partial agonist activity
- agonist or antagonist activity at 5HT2AR (5HT2AR [3]): no activity as agonist or antagonist
- Stability in plasma, % remaining at 120 min, Human [11]: 104%
- remaining at 2 h [11]: ~100%
- Papp B→A (CACO cell permeability; Caco-2): 46.2 ×10⁻⁶ cm/s
- Papp A→B (CACO cell permeability; Caco-2, Papp, A->B, CACO-2 cells): 4.73 ×10⁻⁶ cm/s
- IC50 [12]: > 30000 nM
- CC50 [13]: > 30000 nM

Compound: NCCCNC(=O)[C@@]12C[C@@H]1[C@@H](n1cnc3c(NC(C4CC4)C4CC4)nc(Cl)nc31)[C@H](O)[C@@H]2O [compound 32, (1S,2R,3S,4R,5S)-N-(3-Aminopropyl)-4-(2-chloro-6-((dicyclopropylmethyl)amino)-9H-purin-9-yl)-2,3-dihydroxybicyclo[3.1.0]hexane-1-carboxamide]
- inhibition at 10 µM (5HT2AR [6]): < 10%
- Ki (5HT2BR [7]): 1120 ± 310 nM
- inhibition at 10 µM (A1AR [8]; read-out: A1AR % inhibition): 45 ± 4%
- inhibition at 10 µM (A3AR [9]; read-out: A3AR % inhibition): 55 ± 1%
- inhibition at 10 µM (hA2AAR): 26 ± 5%
- Ki (5HT2CR [10]): 137 ± 19 nM
